Measurements taken from BindingDB's records for patent US20240335442 (Eurofarma, 2024).

Experiments:
[1] = target: Sodium channel protein type 10 subunit alpha (Homo sapiens, UniProt Q9Y5Y9); assay: In Vitro Assay (Protocol 2)
Method: (§1) Compounds of Formula (I), were diluted in eight concentrations in the extracellular solution composed of physiological saline, buffered with HEPES (mM): NaCl, 137; KCl, 4; CaCl2, 3.8; MgCl2, 1; HEPES, 10; Glucose, 10; pH 7.4. […], 50; CsF, 90; MgCl2, 5; EGTA, 5; HEPES, 10; pH 7.2. The duration of exposure of each compound with the cells expressing Nav 1.7 or Nav 1.8 was at least five minutes and the assays were performed at room temperature.The measurements of the sodium currents of Nav 1.8 and Nav 1.7 were obtained using the voltage protocols described below: A holding voltage of-100 mV was established followed by an inactivation voltage step at −40 mV for 8 seconds, followed by a −100 mV step for 20 ms, followed by a 20 ms step for 10 mV for Nav 1.8 or 0 mV for Nav 1.7 (TP1A) before returning to the holding voltage of-100 mV. Protocols were repeated at a frequency of 0.05 Hz and current amplitude was quantified over the TP1A phase log.

[2] = target: Sodium channel protein type 9 subunit alpha (Homo sapiens, UniProt Q15858); assay: In Vitro Assay (Protocol 2)
Method: as §1

Chain of Sodium channel protein type 9 subunit alpha (Q15858 whole entry): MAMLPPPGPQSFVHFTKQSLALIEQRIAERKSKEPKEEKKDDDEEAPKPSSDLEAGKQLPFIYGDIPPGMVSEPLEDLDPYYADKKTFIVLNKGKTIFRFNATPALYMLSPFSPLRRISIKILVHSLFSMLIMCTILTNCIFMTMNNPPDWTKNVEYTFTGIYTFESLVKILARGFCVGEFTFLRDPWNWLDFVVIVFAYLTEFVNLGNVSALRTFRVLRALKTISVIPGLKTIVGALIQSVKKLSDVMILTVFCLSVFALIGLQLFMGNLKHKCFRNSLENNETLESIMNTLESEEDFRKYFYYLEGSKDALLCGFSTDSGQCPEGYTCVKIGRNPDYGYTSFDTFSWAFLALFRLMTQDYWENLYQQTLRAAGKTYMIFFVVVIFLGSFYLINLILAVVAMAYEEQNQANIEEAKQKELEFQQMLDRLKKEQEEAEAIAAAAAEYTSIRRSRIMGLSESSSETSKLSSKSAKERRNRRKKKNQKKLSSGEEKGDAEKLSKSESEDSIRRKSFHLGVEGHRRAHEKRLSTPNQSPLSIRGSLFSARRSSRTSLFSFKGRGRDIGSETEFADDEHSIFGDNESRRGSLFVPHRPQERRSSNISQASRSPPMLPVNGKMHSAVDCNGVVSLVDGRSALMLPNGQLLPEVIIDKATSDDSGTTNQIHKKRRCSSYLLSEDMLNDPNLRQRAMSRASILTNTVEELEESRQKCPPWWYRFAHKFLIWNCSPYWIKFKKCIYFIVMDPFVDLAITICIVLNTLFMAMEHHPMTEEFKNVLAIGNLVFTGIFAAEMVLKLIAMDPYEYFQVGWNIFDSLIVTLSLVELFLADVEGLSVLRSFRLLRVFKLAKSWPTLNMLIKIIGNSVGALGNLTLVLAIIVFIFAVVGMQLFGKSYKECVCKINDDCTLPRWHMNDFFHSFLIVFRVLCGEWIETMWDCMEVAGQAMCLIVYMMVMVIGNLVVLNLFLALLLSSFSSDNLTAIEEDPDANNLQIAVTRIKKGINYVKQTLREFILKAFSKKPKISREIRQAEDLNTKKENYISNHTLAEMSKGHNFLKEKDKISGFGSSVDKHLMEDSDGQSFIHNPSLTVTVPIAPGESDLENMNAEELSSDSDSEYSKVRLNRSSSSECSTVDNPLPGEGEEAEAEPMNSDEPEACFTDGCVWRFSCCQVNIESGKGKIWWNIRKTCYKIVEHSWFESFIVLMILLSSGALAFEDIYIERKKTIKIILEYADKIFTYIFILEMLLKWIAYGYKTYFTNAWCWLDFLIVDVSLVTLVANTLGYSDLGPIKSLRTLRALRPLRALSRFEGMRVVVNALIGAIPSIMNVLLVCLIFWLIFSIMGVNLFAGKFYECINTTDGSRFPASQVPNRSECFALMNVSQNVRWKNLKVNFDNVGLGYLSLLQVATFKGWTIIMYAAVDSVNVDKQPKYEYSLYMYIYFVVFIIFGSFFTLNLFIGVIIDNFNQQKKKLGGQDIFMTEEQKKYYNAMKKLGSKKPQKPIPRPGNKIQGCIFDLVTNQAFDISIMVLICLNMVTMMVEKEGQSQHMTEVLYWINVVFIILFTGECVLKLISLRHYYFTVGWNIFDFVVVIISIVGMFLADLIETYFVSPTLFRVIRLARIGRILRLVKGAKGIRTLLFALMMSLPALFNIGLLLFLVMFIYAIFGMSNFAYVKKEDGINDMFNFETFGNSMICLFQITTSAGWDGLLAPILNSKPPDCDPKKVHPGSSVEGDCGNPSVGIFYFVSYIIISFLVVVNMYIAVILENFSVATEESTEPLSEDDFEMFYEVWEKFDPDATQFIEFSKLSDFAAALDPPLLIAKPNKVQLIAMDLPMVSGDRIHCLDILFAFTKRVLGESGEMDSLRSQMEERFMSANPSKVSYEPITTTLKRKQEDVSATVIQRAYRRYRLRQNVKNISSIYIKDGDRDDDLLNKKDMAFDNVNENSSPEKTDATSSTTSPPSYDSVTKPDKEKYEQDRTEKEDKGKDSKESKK
Chain of Sodium channel protein type 10 subunit alpha (Q9Y5Y9 whole entry): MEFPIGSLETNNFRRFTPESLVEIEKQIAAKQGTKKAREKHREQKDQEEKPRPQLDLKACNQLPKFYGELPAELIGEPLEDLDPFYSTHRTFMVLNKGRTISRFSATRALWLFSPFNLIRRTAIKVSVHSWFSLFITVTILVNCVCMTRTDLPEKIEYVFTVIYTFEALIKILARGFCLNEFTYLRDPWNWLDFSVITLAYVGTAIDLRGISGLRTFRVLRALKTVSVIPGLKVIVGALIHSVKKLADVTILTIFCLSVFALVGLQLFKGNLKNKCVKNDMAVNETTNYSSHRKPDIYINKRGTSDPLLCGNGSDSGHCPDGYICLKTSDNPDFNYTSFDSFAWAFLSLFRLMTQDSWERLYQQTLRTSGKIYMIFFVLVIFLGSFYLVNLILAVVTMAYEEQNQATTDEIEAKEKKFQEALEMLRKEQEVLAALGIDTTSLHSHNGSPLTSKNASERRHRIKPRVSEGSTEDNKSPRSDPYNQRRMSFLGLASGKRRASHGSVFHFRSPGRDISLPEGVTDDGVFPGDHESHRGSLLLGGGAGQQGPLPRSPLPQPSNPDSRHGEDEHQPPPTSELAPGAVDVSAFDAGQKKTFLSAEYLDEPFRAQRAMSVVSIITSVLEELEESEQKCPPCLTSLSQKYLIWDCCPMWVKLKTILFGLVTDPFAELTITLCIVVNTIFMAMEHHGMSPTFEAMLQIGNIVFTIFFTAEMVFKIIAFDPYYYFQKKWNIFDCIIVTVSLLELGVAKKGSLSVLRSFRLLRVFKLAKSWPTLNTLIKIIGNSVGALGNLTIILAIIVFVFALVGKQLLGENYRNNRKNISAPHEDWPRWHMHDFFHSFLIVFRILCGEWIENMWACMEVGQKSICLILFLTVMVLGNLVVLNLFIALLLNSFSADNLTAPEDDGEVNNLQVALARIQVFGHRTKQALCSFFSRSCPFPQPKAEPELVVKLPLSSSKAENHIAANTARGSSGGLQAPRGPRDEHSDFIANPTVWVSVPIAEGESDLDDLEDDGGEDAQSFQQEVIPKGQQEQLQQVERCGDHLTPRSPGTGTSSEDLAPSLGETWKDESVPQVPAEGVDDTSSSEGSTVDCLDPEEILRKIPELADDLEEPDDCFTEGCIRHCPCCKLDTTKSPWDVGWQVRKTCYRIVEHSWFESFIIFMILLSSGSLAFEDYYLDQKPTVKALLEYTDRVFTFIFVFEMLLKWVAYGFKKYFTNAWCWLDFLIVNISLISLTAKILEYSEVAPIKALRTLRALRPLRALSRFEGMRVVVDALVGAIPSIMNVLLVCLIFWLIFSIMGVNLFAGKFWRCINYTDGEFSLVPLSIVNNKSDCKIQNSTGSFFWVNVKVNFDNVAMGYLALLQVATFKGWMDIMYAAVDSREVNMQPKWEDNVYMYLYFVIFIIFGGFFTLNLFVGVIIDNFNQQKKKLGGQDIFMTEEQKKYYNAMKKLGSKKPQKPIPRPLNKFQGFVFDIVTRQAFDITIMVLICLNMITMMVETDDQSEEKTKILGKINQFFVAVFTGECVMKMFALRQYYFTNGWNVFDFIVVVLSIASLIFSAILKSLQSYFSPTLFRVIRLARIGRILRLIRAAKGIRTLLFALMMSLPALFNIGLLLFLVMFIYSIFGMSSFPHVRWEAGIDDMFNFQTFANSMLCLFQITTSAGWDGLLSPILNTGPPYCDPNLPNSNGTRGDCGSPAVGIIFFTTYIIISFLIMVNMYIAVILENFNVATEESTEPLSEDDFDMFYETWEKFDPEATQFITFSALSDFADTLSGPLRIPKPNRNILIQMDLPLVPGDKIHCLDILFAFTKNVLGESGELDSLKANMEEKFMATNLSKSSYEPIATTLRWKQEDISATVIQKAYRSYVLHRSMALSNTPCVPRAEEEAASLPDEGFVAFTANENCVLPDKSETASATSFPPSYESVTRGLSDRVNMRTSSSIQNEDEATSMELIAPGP

## CCOc1ccccc1/C=N/NC(=O)c1cncc(-c2ccc(OC)cc2)n1 [US20240335442, Compound 43]
[1]
  IC50: 188 nM
[2]
  IC50: 3920 nM

## CCCOc1ccccc1/C=N/NC(=O)c1cncc(-c2ccc(OC)cc2)n1 [US20240335442, Compound 44]
[1]
  IC50: 163 nM
[2]
  IC50: 3620 nM

## CCCOc1cc(/C=N/NC(=O)c2cncc(-c3ccc(OC)cc3)n2)cc(OCCC)c1 [US20240335442, Compound 68]
[1]
  IC50: 289 nM
[2]
  IC50: 1830 nM

## COc1ccc(-c2cncc(C(=O)N/N=C/c3cc(OC(C)C)cc(OC(C)C)c3)n2)cc1 [US20240335442, Compound 69]
[1]
  IC50: 517 nM
[2]
  IC50: 1430 nM

## COc1ccc(-c2cncc(C(=O)N/N=C/c3cc(F)cc(F)c3)n2)cc1 [US20240335442, Compound 70]
[1]
  IC50: 973 nM
[2]
  IC50: 10000 nM

## COc1ccc(-c2cncc(C(=O)N/N=C/c3cc(C)cc(C)c3)n2)cc1 [US20240335442, Compound 75]
[1]
  IC50: 51.2 nM
[2]
  IC50: 464 nM

## COc1ccc(-c2cncc(C(=O)N/N=C/c3cc(OC)cc(OC)c3OC)n2)cc1 [US20240335442, Compound 80]
[1]
  IC50: 352 nM
[2]
  IC50: 1490 nM

## COc1ccc(-c2cncc(C(=O)N/N=C/c3cc(OC)c(OC)c(OC)c3)n2)cc1 [US20240335442, Compound 81]
[1]
  IC50: > 1000 nM
[2]
  IC50: > 10000 nM

## COc1ccc(Oc2nccnc2C(=O)N/N=C/c2cc(OC)cc(OC)c2)cc1 [US20240335442, Compound 129]
[1]
  IC50: > 1000 nM
[2]
  IC50: > 10000 nM

## CC(C)Oc1ccc(-c2cncc(C(=O)N/N=C/C3CCC(F)(F)CC3)n2)cc1 [US20240335442, Compound 176]
[1]
  IC50: 456 nM
[2]
  IC50: 400 nM

## COc1ccc(-c2cncc(C(=O)N/N=C/C3=C(C)CCCC3)n2)cc1 [US20240335442, Compound 197]
[1]
  IC50: 162 nM
[2]
  IC50: 778 nM

## CCOc1ccc(-c2cncc(C(=O)N/N=C/C3=C(C)CCCC3)n2)cc1 [US20240335442, Compound 198]
[1]
  IC50: 24 nM
[2]
  IC50: 367 nM

## CCOc1ccc(-c2cncc(C(=O)N/N=C/C3=C(C)CCCCC3)n2)cc1 [US20240335442, Compound 201]
[1]
  IC50: 70 nM
[2]
  IC50: 425 nM

## CCOc1ccc(-c2nc(C(=O)N/N=C/c3cc(OC)cc(OC)c3)cnc2C)cc1 [US20240335442, Compound 207]
[1]
  IC50: 472 nM
[2]
  IC50: > 10000 nM

## CCOc1ccc(-c2nc(C(=O)N/N=C/c3cc(OC)cc(OC)c3)cnc2CC)cc1 [US20240335442, Compound 208]
[1]
  IC50: 431 nM
[2]
  IC50: 1890 nM

## CCOc1ccc(-c2nc(C(=O)N/N=C/c3cc(OC)cc(OC)c3)cnc2OC)cc1 [US20240335442, Compound 211]
[1]
  IC50: > 1000 nM
[2]
  IC50: > 10000 nM

## CCOc1ccc(-c2cncc(C(=O)N/N=C/c3cc(OC)cc(C(C)O)c3)n2)cc1 (centres undefined) [US20240335442, Compound 215]
[1]
  IC50: 116 nM
[2]
  IC50: 1910 nM
